What follows are compounds tested on HCV replicon (assay: Replicon based assay of HCV replication inhibition (NPT ELISA)). Details: Hepatitis C virus, Huh-7, 72 h, Table I; Huh-7 HCV replicon-containing cells, three days; read-out: Activity.
Type: cell-based, Hepatitis C virus
Procedure, shortened: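 Huh-7 cells carrying a bicistronic HCV replicon (neo, EMCV-IRES-driven NS3–NS5B) treated overnight after seeding with usually 6 concentrations, 10 to 0.03 micromolar, for three days at 37° C without G418. Replication read as NPT level by captured ELISA; matched-DMSO wells and interferon alpha as controls.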

Going from `CCCCCOc1ccc(Nc2nc(-c3ccc(Cl)cc3)cs2)cc1` [compound 26, 4-(4-chlorophenyl)-N-(4-(pentyloxy)phenyl)thiazol-2-amine] to `CCCCCc1ccc(Nc2nc(-c3ccccc3Cl)cs2)cc1` [compound 186, 4-(2-chlorophenyl)-N-(4-pentylphenyl)thiazol-2-amine], the EC50 rises from less than 1000 nM to greater than 10000 nM.

`CCCCCOc1ccc(Nc2nc(C(=O)Nc3ccc(Cl)cc3)cs2)cc1C(F)(F)F` [compound 11, 2-(3-(trifluoromethyl)-4-(pentyloxy)phenylamino)-N-(4-chlorophenyl)thiazole-4-carboxamide] and `CCCCCOc1ccc(Nc2nc(-c3cc(-c4ccc(Cl)c(Cl)c4)no3)cs2)cn1` [compound 179, N-(4-(3-(3,4-dichlorophenyi)isoxazol-5-yl)thiazol-2-yl)-6-(pentyloxy)pyridin-3-amine] cannot be ordered by EC50: greater than 10000 nM for the first, greater than 10000 nM for the second.

Work on `CCCCCc1ccc(Nc2nc(-c3cc(C(=O)OCC)no3)cs2)cc1` [compound 185, ethyl 5-(2-(4-pentylphenylamino)thiazol-4-yl)isoxazole-3-carboxylate] yielded an EC50 greater than 10000 nM.

Same assay, conditions: Hepatitis C virus, Huh-7, 72 h, Table III; Huh-7 HCV replicon-containing cells, three days; read-out: Activity

`CCCCCOc1ccc(Nc2nc(-c3ccc(C#N)nc3)cs2)cc1F` [compound 615, 5-(2-(3-fluoro-4-(pentyloxy)phenylamino)thiazol-4-yl)pyridine-2-carbonitrile] and `CCCCCCCCOc1ccc(Nc2nc(-c3ccc4c(c3)COC4=O)cs2)cc1C(F)(F)F` [compound 660, 5-(2-(3-(trifluoromethyl)-4-(octyloxy)phenylamino)thiazol-4-yl)isobenzofuran-1(3H)-one] cannot be ordered by EC50: less than 1000 nM for the first, less than 1000 nM for the second.

First: CCCCCCCCOc1ccc(Nc2nc(Cc3ccc(Cl)cc3)cs2)cc1C(F)(F)F [compound 635, 4-(4-chlorobenzyl)-N-(3-(trifluoromethyl)-4-(octyloxy)phenyl)thiazol-2-amine]
Second: CCCCCCCCOc1ccc(Nc2nc(-c3cc4ccccc4o3)cs2)cc1C(F)(F)F [compound 589, 4-(benzofuran-2-yl)-N-(3-(trifluoromethyl)-4-(octyloxy)phenyl)thiazol-2-amine]
The EC50 of the first is higher: 1000 to 10000 nM for the first, less than 1000 nM for the second. The second is the more potent here.

`CCCCCCCCOc1ccc(Nc2nc(-c3cnc(OC)nc3OC)cs2)cc1C(F)(F)F` [compound 713, N-(3-(trifluoromethyl)-4-(octyloxy)phenyl)-4-(2,4-dimethoxypyrimidin-5-yl)thiazol-2-amine] and `CCCCCCCCOc1ccc(Nc2nc(-c3ccc(OCC(=O)O)cc3)c(C)s2)cc1C(F)(F)F` [compound 586, 2-(4-(2-(3-(trifluoromethyl)-4-(octyloxy)phenylamino)-5-methylthiazol-4-yl)phenoxy)acetic acid] cannot be ordered by EC50: less than 1000 nM for the first, less than 1000 nM for the second.

`CCCCCCCCN(C)c1ccc(Nc2nc(-c3ccc(O)c(C(N)=O)c3)cs2)cc1C(F)(F)F` [compound 569, 5-(2-(4-(N-methyl-N-octylamino)-3-(trifluoromethyl)phenylamino)thiazol-4-yl)-2-hydroxybenzamide] and `CCCCCCCCc1ccc(Nc2nc(-c3ccc(Cl)s3)cs2)cc1` [compound 546, 4-(5-chlorothiophen-2-yl)-N-(4-octylphenyl)thiazol-2-amine] cannot be ordered by EC50: less than 1000 nM for the first, less than 1000 nM for the second.

In the case of `CCCC(CCC)Oc1ccc(Nc2nc(-c3cnccn3)cs2)cc1C(F)(F)F` [compound 597, N-(3-(trifluoromethyl)-4-(heptan-4-yloxy)phenyl)-4-(pyrazin-2-yl)thiazol-2-amine], the EC50 is reported as less than 1000 nM.

Same assay, conditions: Hepatitis C virus, replicon based assay of HCV replication inhibition; Table II; read-out: Activity

First: CCCCCCCCOc1ccc(Nc2nc(-c3csc(-c4ccccc4)n3)cs2)cc1 [compound 332, N-(4-(octyloxy)phenyl)-4-(2-phenylthiazol-4-yl)thiazol-2-amine]
Second: CCCCCCCOc1ccc(Nc2nc(-c3c[nH]c4ccccc34)cs2)cc1 [compound 398, N-(4-(heptyloxy)phenyl)-4-(1H-indol-3-yl)thiazol-2-amine]
The EC50 of the first is higher: 1000 to 10000 nM for the first, less than 1000 nM for the second. The second is the more potent here.

`CCCCCOc1ccc(Nc2nc(N3CCCC3C(=O)O)cs2)cc1C(F)(F)F` (stereo not drawn) [compound 368, 1-(2-(4-(pentyloxy)-3-(trifluoromethyl)phenyl-amino)thiazol-4-yl)pyrrolidine-2-carboxylic acid] and `CCCCCOc1ccc(Nc2nc(CN3CCC(C(C)(C)N)C3)cs2)cc1C(F)(F)F` (stereo not drawn) [compound 304, 4-((3-(2-aminopropan-2-yl)pyrrolidin-1-yl)methyl)-N-(4-(pentyloxy)-3-(trifluoromethyl)phenyl)thia-zol-2-amine] fall in the same range of EC50: 1000 to 10000 nM for the first, 1000 to 10000 nM for the second.

First: CCCCCOc1ccc(Nc2nc(-c3ccncc3)cs2)cc1F [compound 417, N-(3-fluoro-4-(pentyloxy)phenyl)-4-(pyridin-4-yl)thiazol-2-amine]
Second: CCCCCOc1ccc(Nc2nc(-c3ccc(Br)cc3)cs2)cc1C(F)(F)F [compound 406, 4-(4-bromophenyl)-N-(3-(trifluoromethyl)-4-(pentyloxy)phenyl)thiazol-2-amine]
The EC50 of the first is higher: 1000 to 10000 nM for the first, less than 1000 nM for the second. The second is the more potent here.

First: Cc1sc(Nc2ccc(OCC(C)C)c(C(F)(F)F)c2)nc1-c1ccc(CC(=O)O)cc1 [compound 246, 2-(4-(2-(4-isobutoxy-3-(trifluoromethyl)phenyl-amino)-5-methylthiazol-4-yl)phenyl)acetic acid]
Second: CC/C=C\CCCCOc1ccc(Nc2nc(-c3ccc(F)cc3)cs2)cc1C(F)(F)F [compound 482, N-(4-((Z)-oct-5-enyloxy)-3-(trifluoromethyl)phenyl)-4-(4-fluorophenyl)thiazol-2-amine]
The EC50 of the first is higher: 1000 to 10000 nM for the first, less than 1000 nM for the second. The second is the more potent here.

Compared with `CCCCCCCOc1ccc(Nc2nc(-c3cc(OC)ccc3OC)cs2)cc1` [compound 432, N-(4-(heptyloxy)phenyl)-4-(2,5-dimethoxyphenyl)thiazol-2-amine], `CCCCCCCCOc1ccc(Nc2nc(-c3ccc(OC)cc3)c(-c3ccc(OC)cc3)s2)cc1` [compound 353, 4,5-bis(4-methoxyphenyl)-N-(4-(octyloxy)phenyl)thiazol-2-amine] is higher in EC50: less than 1000 nM for the first, 1000 to 10000 nM for the second.

`CCCCCOc1ccc(Nc2nc(CN3CCC(N(C)C(=O)OC(C)(C)C)C3)cs2)cc1C(F)(F)F` (stereo not drawn) [compound 266, tert-butyl methyl(1-((2-(4-(pentyloxy)-3-(trifluoromethyl)phenyl-amino)thiazol-4-yl)methyl)pyrrolidin-3-yl)carbamate] and `CCCCCOc1c(F)cc(Nc2nc(-c3cccnc3)cs2)cc1F` [compound 430, N-(3,5-difluoro-4-(pentyloxy)phenyl)-4-(pyridin-3-yl)thiazol-2-amine] cannot be ordered by EC50: less than 1000 nM for the first, less than 1000 nM for the second.

`Fc1cc(Nc2nc(-c3cncnc3)cs2)ccc1OCC1CCCCC1` [compound 506, N-(4-(cyclohexylmethoxy)-3-fluorophenyl)-4-(pyrimidin-5-yl)thiazol-2-amine] showed an EC50 of less than 1000 nM.

Same assay, conditions: Hepatitis C virus, replicon based assay of HCV replication inhibition; Table IV; read-out: Activity

`COc1ncc(-c2csc(Nc3ccc(OCC4CCCCC4)c(C(F)(F)F)c3)n2)c(OC)n1` [compound 767, N-(4-(cyclohexylmethoxy)-3-(trifluoromethyl)phenyl)-4-(2,4-dimethoxypyrimidin-5-yl)thiazol-2-amine] and `FC(F)(F)c1cccc(-c2csc(Nc3ccc(OCC4CCCCC4)c(C(F)(F)F)c3)n2)c1` [compound 771, N-(4-(cyclohexylmethoxy)-3-(trifluoromethyl)phenyl)-4-(3-(trifluoromethyl)phenyl)thiazol-2-amine] cannot be ordered by EC50: less than 1000 nM for the first, less than 1000 nM for the second.

`c1ccc(-c2nsc(Nc3nc(-c4cccnc4)cs3)n2)cc1` [compound 796, 3-phenyl-N-(4-(pyridin-3-yl)thiazol-2-yl)-1,2,4-thiadiazol-5-amine] and `NC(=O)c1cccc(Nc2nc(-c3cccnc3)cs2)c1` [compound 876, 3-(4-(pyridin-3-yl)thiazol-2-ylamino)benzamide] cannot be ordered by EC50: greater than 10000 nM for the first, greater than 10000 nM for the second.

First: FC(F)(F)c1cc(Nc2nc(-c3cccnc3)cs2)ccc1Cl [compound 881, N-(4-chloro-3-(trifluoromethyl)phenyl)-4-(pyridin-3-yl)thiazol-2-amine]
Second: CCN(CC)S(=O)(=O)c1cc(Nc2nc(-c3cccnc3)cs2)ccc1Cl [compound 819]
The EC50 of the first is lower: less than 1000 nM for the first, greater than 10000 nM for the second.

First: Fc1ccc(-c2csc(Nc3ccc(OCCCc4cccnc4)c(C(F)(F)F)c3)n2)cc1 [compound 806, N-(4-(3-(pyridin-3-yl)propoxy)-3-(trifluoromethyl)phenyl)-4-(4-fluorophenyl)thiazol-2-amine]
Second: Fc1cc(Nc2nc(-c3cccnc3)cs2)ccc1OCCCCc1ccccc1 [compound 912, N-(4-(4-phenylbutoxy)-3-fluorophenyl)-4-(pyridin-3-yl)thiazol-2-amine]
The EC50 of the first is higher: 1000 to 10000 nM for the first, less than 1000 nM for the second.

Compared with `CC(C)=CCC/C(C)=C/COc1ccc(Nc2nc(-c3ccc(F)cc3)cs2)cc1C(F)(F)F` [compound 827, N-(4-((E)-3,7-dimethylocta-2,6-dienyloxy)-3-(trifluoromethyl)phenyl)-4-(4-fluorophenyl)thiazol-2-amine], `CCCCCOc1ccc(Nc2nc(-c3cccnc3)c(F)s2)cc1C(F)(F)F` [compound 950, 5-fluoro-N-(3-(trifluoromethyl)-4-(pentyloxy)phenyl)-4-(pyridin-3-yl)thiazol-2-amine] is lower in EC50: greater than 10000 nM for the first, less than 1000 nM for the second. The second is the more potent here.

`c1ccc(CCCOc2ccc(Nc3nc(-c4cccnc4)cs3)cc2)cc1` [compound 920, N-(4-(3-phenylpropoxy)phenyl)-4-(pyridin-3-yl)thiazol-2-amine] and `c1cncc(-c2csc(Nc3ccc(OCCCCc4cccs4)cc3)n2)c1` [compound 922, N-(4-(4-(thiophen-2-yl)butoxy)phenyl)-4-(pyridin-3-yl)thiazol-2-amine] cannot be ordered by EC50: less than 1000 nM for the first, less than 1000 nM for the second.

Going from `CC(C)(C)c1cccc(Nc2nc(-c3cccnc3)cs2)c1` [compound 893, N-(3-tert-butylphenyl)-4-(pyridin-3-yl)thiazol-2-amine] to `CCCCCCC#Cc1ccc(Nc2nc(-c3cnc(OC)nc3)cs2)cc1C(F)(F)F` [compound 780, N-(3-(trifluoromethyl)-4-(oct-1-ynyl)phenyl)-4-(2-methoxypyrimidin-5-yl)thiazol-2-amine], the EC50 falls from greater than 10000 nM to less than 1000 nM. The second is the more potent here.

Same assay, conditions: Table I; Huh-7 HCV replicon-containing cells, three days; read-out: Activity

Compound `CCCCCOc1ccc(Nc2nc(-c3ccc(Cl)cc3)cs2)cc1C(F)(F)F` [compound 3] has an EC50 of less than 1000 nM.
